In patent US4713457A, “Ergoline derivatives and acid addition salts thereof” (priority 1985, dated 1987):
Where a name gives a salt, the structure may show the parent alone.

Key:
[1] = test system: ddY male mice, KCN-induced anoxia; assay: Activity on KCN-induced anoxia in mice; assay type: in vivo, mouse; conditions: for Number of Survived Mice/Total Mice / Survival Time: KCN 2.5 mg/kg i.v.; for Brain protection activity (in words): Table 5
[2] = test system: Donryu male rats, indomethacin ulcer; assay: Anti-ulcer activity, indomethacin-induced ulcer; assay type: in vivo, rat; conditions: for Ulcer Index Inhibition / Ulcer Index: 100 mg/kg oral, indomethacin 25 mg/kg; for Ulcer Index: **p < 0.01; for Anti-ulcer activity (in words): Table 4
Method: The test compound was administered orally to Donryu male rats weighing 240 to 300 g (7 rats per group) which have been fasting for 24 hours before testing, and, after 30 minutes, indomethacin was administered orally to the rats at a dose of 25 mg/kg. The rats were then maintained for 7 hours without feeding water and foods and then sacrificed. The stomach was extracted and fixed by infusing 7.5 ml of a 2% formalin solution into the stomach. The stomach was incised along the greater curvature thereof, and length (mm) of each ulcer generated in gastric glands was determined. The total length of the ulcer per rat was expressed in terms of an ulcer index.
In this experiment, the test compound was suspended in a 0.5% aqueous gum arabic and administered at a volume of 5 ml/kg. Indomethacin (manufacturedby Sigma Co., Ltd.) was administered as a 0.5 wt% aqueous suspension in sodium carboxymethyl cellulose at a volume of 5 ml/kg. As a control, a 0.5 wt% suspension of aqueous gum arabic was orally administered at a volume of 5 ml/kg.

[3] = test system: Rats, pylorus portion ligated (gastric secretion); assay: Gastric secretion inhibitory activity in pylorus-ligated rats; assay type: in vivo, rat
Method: Rats weighing 200 to 250 g (8 rats per group) which have been fasting for 24 hours before testing were subjected to abdominal section under ether anesthesia, and the pylorus portion was ligated. Immediately after ligation, the test compound was administered into the duodenum as a suspension in a 5 wt% aqueous gum arabic at a volume of 2 ml/kg. The rats were sacrificed after 6 hours, and the stomach was extracted. The gastric juice was collected to determine the volume thereof, and the acidity of the gastic juice was titrated to a pH 7.0 with a 0.02N aqueous sodium hydroxide solution using a pH meter. The acid secretion amount per 6 hours (μEq/6 h) was calculated by (volume of gastric juice×acidity of gastric juice).

[4] = test system: unanesthetized spontaneously hypertensive rats; assay: Anti-hypertensive activity, systolic blood pressure, tail cuff method; assay type: in vivo, rat; conditions: 10 mg/kg oral
Method: (§1) The anti-hypertensive activity of the compounds was determined by the tail cuff method using unanesthetized spontaneously hypertensive rats weighing 300 to 350 g (21 to 25 week old). In this experiment, the systolic blood pressure was determined by the bloodless method using a hemodynamometer. The heart rate was determined simultaneously using a sphygmometer connected to the pulse output. After rats were placed under condition of 40° C. for 10 minutes, the blood pressure was determined by holding the rats in a holder. The test compounds were suspended in a 0.5 wt% aqueous gum arabic. Hydralazine hydrochloride used as a comparative agent was administered as an aqueous solution thereof. The volume of oral administration was 0.5 ml per 100 g of body weight.

[5] = test system: unanesthetized spontaneously hypertensive rats; assay: Heart rate determined simultaneously with blood pressure (sphygmometer connected to the pulse output); assay type: in vivo, rat; conditions: 10 mg/kg oral
Method: as §1

[6] = 100 mg/kg into the duodenum, 6 hours
[7] = 10 mg/kg into the duodenum, 6 hours
[8] = 10 mg/kg into the duodenum, 6 hours, *p < 0.05

Compound | Changes in Systolic Blood Pressure ([4]; 1 hr after administration) | Changes in Systolic Blood Pressure ([4]; 2 hrs after administration) | Changes in Systolic Blood Pressure ([4]; 4 hrs after administration) | Changes in Systolic Blood Pressure ([4]; 6 hrs after administration) | Changes in Heart Rate ([5]; 1 hr after administration) | Changes in Heart Rate ([5]; 2 hrs after administration) | Changes in Heart Rate ([5]; 4 hrs after administration) | Changes in Heart Rate ([5]; 6 hrs after administration) | also measured
CC(C)(CO)[C@@H](O)C(=O)NCCCC(=O)O [Calsium Hopantenate] | – | – | – | – | – | – | – | – | Number of Survived Mice/Total Mice ([1]; 500 mg/kg i.p.): 0/9; Survival Time ([1]; 500 mg/kg i.p.): 43.8 ± 2.5 s; Brain protection activity (in words) [1]: did not show any significant activity
NC[C@H]1CC[C@H](C(=O)Oc2ccc(CCC(=O)O)cc2)CC1 [Cetraxate, p-hydroxyhydrocinnamic acid trans-(4-aminomethyl)cyclohexane carboxylate] | – | – | – | – | – | – | – | – | Ulcer Index Inhibition [2]: 14.9%; Ulcer Index [2]: 52.1 ± 8.7 mm; Anti-ulcer activity (in words) [2]: did not show any significant anti-ulcer activity
CN=C(NC#N)NCCSCc1nc[nH]c1C [Cimetidine, 1-cyano-2-methyl-3-[2-[[(5-methylimidazole-4-yl)methyl]thio]ethyl]guanidine, reference compound] | – | – | – | – | – | – | – | – | Volume of Acid Secreted ([3]; 100 mg/kg into the duodenum): 142.5 ± 60.5 μEq/6 h; Volume of Acid Secreted, Inhibition [3, 6]: 66.2%; Volume of Gastric Juice, Inhibition [3, 6]: 60.2%; Ulcer Index Inhibition [2]: 53.7%; Ulcer Index [2]: 28.3 ± 8.4 mm
CN1C[C@H](Cn2ccnc2)C[C@@H]2c3cccc4[nH]cc(c34)C[C@H]21 [Example 1, 1-(6-Methylergolin-8β-ylmethyl)imidazole] | -78 Δ mmHg | -49 Δ mmHg | -48 Δ mmHg | -60 Δ mmHg | -39 Δ/min. | -56 Δ/min. | -25 Δ/min. | -58 Δ/min. | Changes in Systolic Blood Pressure ([4]; 24 hrs after administration): -14 Δ mmHg; Changes in Heart Rate ([5]; 24 hrs after administration): -44 Δ/min.; Volume of Acid Secreted, Inhibition [3, 7]: 73.3%; Volume of Gastric Juice, Inhibition [3, 7]: 67.8%; Total Acidity [3, 8]: 62.9 ± 3.8 mEq/liter
CN1CC(=O)N(C[C@@H]2C[C@@H]3c4cccc5[nH]cc(c45)C[C@H]3N(C)C2)C1=O [Example 3, 1-Methyl-3-(6-methylergolin-8β-ylmethyl)imidazolidin-2,4-dione] | -57 Δ mmHg | -66 Δ mmHg | -31 Δ mmHg | -27 Δ mmHg | 26 Δ/min. | 1 Δ/min. | 2 Δ/min. | -4 Δ/min. | Changes in Systolic Blood Pressure ([4]; 24 hrs after administration): -4 Δ mmHg; Changes in Heart Rate ([5]; 24 hrs after administration): 1 Δ/min.; Volume of Acid Secreted, Inhibition [3, 7]: 52.9%; Volume of Gastric Juice, Inhibition [3, 7]: 48.4%; Total Acidity [3, 8]: 70.0 ± 5.3 mEq/liter; pH of gastric juice [3, 8]: 2.07 ± 0.22; Acid output per 6 h ([3]; 10 mg/kg into the duodenum, *p < 0.05): 198.7 ± 34.3 μEq/6 h; Survival Time ([1]; 10 mg/kg i.p., **p < 0.01, ***p < 0.001, survivors counted as 180 sec): 101.6 ± 17.8 s; Number of Survived Mice/Total Mice ([1]; 10 mg/kg i.p., survived longer than 3 minutes): 2/8
CN1C[C@H](Cn2cccn2)C[C@@H]2c3cccc4[nH]cc(c34)C[C@H]21 [Example 4, 1-(6-Methylergolin-8β-ylmethyl)pyrazole] | -37 Δ mmHg | -51 Δ mmHg | -58 Δ mmHg | -49 Δ mmHg | -16 Δ/min. | -38 Δ/min. | -52 Δ/min. | -41 Δ/min. | Changes in Systolic Blood Pressure ([4]; 24 hrs after administration): -15 Δ mmHg; Changes in Heart Rate ([5]; 24 hrs after administration): -7 Δ/min.
CN1C[C@H](CN2C(=O)CCC2=O)C[C@@H]2c3cccc4[nH]cc(c34)C[C@H]21 [Example 8, N-(6-methylergolin-8β-ylmethyl)succinimide] | -64 Δ mmHg | -77 Δ mmHg | -59 Δ mmHg | -66 Δ mmHg | 6 Δ/min. | 3 Δ/min. | -32 Δ/min. | -40 Δ/min. | –
Cc1nccn1C[C@@H]1C[C@@H]2c3cccc4[nH]cc(c34)C[C@H]2N(C)C1 [Example 9, 2-Methyl-1-(6-methylergolin-8β-ylmethyl)imidazole] | -50 Δ mmHg | -59 Δ mmHg | -60 Δ mmHg | -55 Δ mmHg | -12 Δ/min. | -27 Δ/min. | -36 Δ/min. | -32 Δ/min. | Changes in Systolic Blood Pressure ([4]; 24 hrs after administration): -9 Δ mmHg; Changes in Heart Rate ([5]; 24 hrs after administration): -3 Δ/min.
CCc1nccn1C[C@@H]1C[C@@H]2c3cccc4[nH]cc(c34)C[C@H]2N(C)C1 [Example 10, 2-Ethyl-1-(6-methylergolin-8β-ylmethyl)imidazole] | -69 Δ mmHg | -64 Δ mmHg | -68 Δ mmHg | -66 Δ mmHg | 2 Δ/min. | -15 Δ/min. | -6 Δ/min. | -11 Δ/min. | –
CC(C)c1nccn1C[C@@H]1C[C@@H]2c3cccc4[nH]cc(c34)C[C@H]2N(C)C1 [Example 11, 2-Isopropyl-1-(6-methylergolin-8β-ylmethyl)imidazole] | -53 Δ mmHg | -56 Δ mmHg | -54 Δ mmHg | -58 Δ mmHg | -37 Δ/min. | -21 Δ/min. | -24 Δ/min. | -46 Δ/min. | –
CCCc1nccn1C[C@@H]1C[C@@H]2c3cccc4[nH]cc(c34)C[C@H]2N(C)C1 [Example 12, 1-(6-Methylergolin-8β-ylmethyl)-2-propylimidazole] | -69 Δ mmHg | -59 Δ mmHg | -63 Δ mmHg | -59 Δ mmHg | -25 Δ/min. | -7 Δ/min. | -8 Δ/min. | -5 Δ/min. | –
CN1C[C@H](Cn2ccnc2-c2ccccc2)C[C@@H]2c3cccc4[nH]cc(c34)C[C@H]21 [Example 13, 1-(6-Methylergolin-8β-ylmethyl)-2-phenylimidazole] | -52 Δ mmHg | -46 Δ mmHg | -54 Δ mmHg | -48 Δ mmHg | -46 Δ/min. | -49 Δ/min. | -49 Δ/min. | – | –
CCOC(=O)c1ncn(C[C@@H]2C[C@@H]3c4cccc5[nH]cc(c45)C[C@H]3N(C)C2)c1C [Example 15B, ethyl 5-methyl-1-(6-methylergolin-8β-ylmethyl)-4-imidazolecarboxylate] | – | -49 Δ mmHg | -59 Δ mmHg | -59 Δ mmHg | -4 Δ/min. | 5 Δ/min. | -8 Δ/min. | -11 Δ/min. | –
CN(C)CCOC(=O)COc1ccc(Cl)cc1 [Meclofenoxate Hydrochloride] | – | – | – | – | – | – | – | – | Number of Survived Mice/Total Mice ([1]; 200 mg/kg i.p.): 0/6; Survival Time ([1]; 200 mg/kg i.p.): 47.7 ± 4.4 s; Brain protection activity (in words) [1]: did not show any significant activity
CC(C)=CCOc1ccc(/C=C/C(=O)c2ccc(OCC=C(C)C)cc2OCC(=O)O)cc1 [Sofalcone] | – | – | – | – | – | – | – | – | Ulcer Index Inhibition [2]: 3.4%; Ulcer Index [2]: 59.2 ± 10.5 mm; Anti-ulcer activity (in words) [2]: did not show any significant anti-ulcer activity
